Among the test systems are NCI-H522; MCF7; SR; T47D; M14; DU-145; ACHN; MOLT-4; MDA-MB-231; TK-10; A549; U-251; SNB-19; SK-OV-3; SF-539; NCI-H460; HCC 2998; OVCAR-3; RXF 393; MDA-N.
Assay in all cases: NCI anticancer screen, dose series, 48 h

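In this assay, cells in 96-well plates receive the compound at five concentrations for 48 hours. Endpoints are linearly interpolated between the surrounding concentrations. GI50 = concentration required for 50% inhibition of growth.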 Activity calls are given as the source filed them. No stated cut-off is given here; in the data, active = GI50 up to about 1.1 µM and inactive = higher.

As to `CCCCCCCCCOC(=O)c1cnc(Cl)cn1`, the GI50 in the experiment on NCI-H522 was 19 µM (inactive); with MCF7, 25 µM (inactive); in the experiment with SR it was 49.1 µM (inactive); in the experiment on T47D, 22.1 µM (inactive); with M14, 18.4 µM (inactive); in the experiment with DU-145, 19.6 µM (inactive). Besides, the GI50 in the experiment with ACHN is 19.4 µM (inactive); with MOLT-4, 52.7 µM (inactive); with MDA-MB-231 it was 18.5 µM (inactive); in the experiment on TK-10 it was 20.5 µM (inactive); with A549 it was 26.4 µM (inactive); with U-251, 19.7 µM (inactive). Also, the GI50 with SNB-19 was 20.9 µM (inactive); in the experiment on SK-OV-3, 34.9 µM (inactive); in the experiment on SF-539, 25.8 µM (inactive); with NCI-H460, 20.8 µM (inactive).

Take `CC1(C)OCC(COC(=O)NCn2cc(-c3ccccc3)nn2)O1` (configuration not stated): the GI50 in the experiment on NCI-H522, in the experiment on MCF7, with SR, with M14, with DU-145 and in the experiment on ACHN was > 100 µM (inactive) throughout. Further, the GI50 in the experiment with MOLT-4 is > 100 µM (inactive); in the experiment on MDA-MB-231, > 100 µM (inactive); with TK-10, > 100 µM (inactive); in the experiment with A549, > 100 µM (inactive); in the experiment with HCC 2998, 26.2 µM (inactive); with U-251, > 100 µM (inactive). Moreover, the GI50 in the experiment with SNB-19, in the experiment on SF-539 and in the experiment on NCI-H460 was > 100 µM (inactive) each time.

With `O=c1oc2ccccc2c2c1Sc1ccccc1N2`, the GI50 is > 100 µM (inactive) with NCI-H522; 71.3 µM (inactive) in the experiment with MCF7; 53.6 µM (inactive) in the experiment with SR; 0.897 µM (active) in the experiment with T47D; > 100 µM (inactive) in the experiment on M14; > 100 µM (inactive) in the experiment on DU-145. The GI50 in the experiment with ACHN was > 100 µM (inactive); in the experiment on MOLT-4, 63.4 µM (inactive); in the experiment on OVCAR-3, 68.9 µM (inactive); with MDA-MB-231, 85.5 µM (inactive); in the experiment with TK-10, > 100 µM (inactive); in the experiment with A549 it was > 10 µM (inactive). In addition, the GI50 in the experiment on HCC 2998 was 53 µM (inactive); in the experiment on U-251, 58.3 µM (inactive); in the experiment with SNB-19, > 100 µM (inactive); with SF-539, > 100 µM (inactive); in the experiment on RXF 393, 64.9 µM (inactive); with NCI-H460, 92.9 µM (inactive).

Turning to `C=C1N(C=O)C(C)(C)N(O)C1(C)C`, the GI50 is > 100 µM (inactive) in the experiment on MCF7; > 100 µM (inactive) in the experiment on T47D; > 100 µM (inactive) with M14; > 100 µM (inactive) in the experiment with DU-145; > 100 µM (inactive) in the experiment with ACHN; 29.1 µM (inactive) in the experiment with MOLT-4. In addition, the GI50 in the experiment on OVCAR-3, in the experiment on MDA-MB-231, with TK-10, with A549, in the experiment on HCC 2998 and with U-251 was > 100 µM (inactive) each time. Also, the GI50 in the experiment with SNB-19, in the experiment with SK-OV-3, in the experiment on SF-539, in the experiment on RXF 393 and in the experiment with NCI-H460 was > 100 µM (inactive) throughout.

As for `O=c1[nH]c2nccn2c2c1SCCN2`, the GI50 in the experiment on MDA-N, in the experiment on NCI-H522, in the experiment with MCF7, with SR, in the experiment with T47D and with M14 was > 100 µM (inactive) throughout. The GI50 in the experiment on DU-145, with ACHN, with MOLT-4, in the experiment on OVCAR-3, in the experiment with TK-10 and in the experiment with A549 was > 100 µM (inactive) throughout. Moreover, the GI50 in the experiment with HCC 2998, in the experiment on U-251, with SNB-19, with SF-539, in the experiment on RXF 393 and in the experiment with NCI-H460 was > 100 µM (inactive) in each case.

Turning to `C[C@@H]1OC2(O)[C@H]3CCCN3S(=O)(=O)CCN2C1=O` (some centres not stated), the GI50 with NCI-H522, in the experiment on SR, in the experiment on M14, in the experiment on ACHN, with MOLT-4 and in the experiment with OVCAR-3 was > 100 µM (inactive) throughout. Further, the GI50 in the experiment on TK-10, in the experiment with A549, with HCC 2998, in the experiment on U-251, with SNB-19 and with SK-OV-3 was > 100 µM (inactive) each time. Also, the GI50 in the experiment on SF-539, in the experiment on RXF 393 and in the experiment on NCI-H460 was > 100 µM (inactive) each time.

As to `COC(=O)C1=C(OC(=O)/C(=C/c2c(F)cccc2F)c2ccccc2)C(C(=O)OC)[C@@]2(O)[C@@H](C(=O)OC)[C@H](C)C[C@@H]1[C@@H]2C(=O)OC` (some centres not stated), the GI50 in the experiment with NCI-H522 is 6.76 µM (inactive); in the experiment on T47D it was > 100 µM (inactive); in the experiment with M14 it was > 100 µM (inactive); with DU-145, > 100 µM (inactive); in the experiment on ACHN it was > 100 µM (inactive); with MOLT-4 it was > 100 µM (inactive). Besides, the GI50 was > 100 µM (inactive) in the experiment on OVCAR-3; > 100 µM (inactive) with MDA-MB-231; > 100 µM (inactive) in the experiment with TK-10; 86.3 µM (inactive) in the experiment on A549; > 100 µM (inactive) in the experiment with U-251; > 100 µM (inactive) with SNB-19. The GI50 in the experiment on SK-OV-3, in the experiment with SF-539, with RXF 393 and in the experiment with NCI-H460 was > 100 µM (inactive) each time.

`CC(=O)NC1C(=O)CC(c2ccccc2)N(C)C1c1ccccc1` (configuration not stated): the GI50 in the experiment with NCI-H522 is > 100 µM (inactive); in the experiment on SR it was > 100 µM (inactive); in the experiment on M14, 61 µM (inactive); in the experiment on ACHN it was > 100 µM (inactive); with MOLT-4 it was > 100 µM (inactive); with OVCAR-3, > 100 µM (inactive). Also, the GI50 in the experiment on TK-10 is > 100 µM (inactive); in the experiment on A549, > 100 µM (inactive); with HCC 2998, > 100 µM (inactive); with U-251, > 100 µM (inactive); with SNB-19 it was > 100 µM (inactive); with SK-OV-3 it was 26.3 µM (inactive). Moreover, the GI50 in the experiment on SF-539, in the experiment on RXF 393 and in the experiment on NCI-H460 was > 100 µM (inactive) in each case.

Consider `COc1cccc2c1C(=O)c1c(O)c3c(c(O)c1C2=O)CC(O)(C(C)=O)CC3OC1OC(COC(C)=O)C(OC(C)=O)C(OC(C)=O)C1OC(C)=O` (configuration not stated), for which the GI50 in the experiment on NCI-H522 is > 100 µM (inactive); with MCF7, 65.2 µM (inactive); with SR, 5.38 µM (inactive); in the experiment with T47D, 38.8 µM (inactive); in the experiment on M14, 43.8 µM (inactive); in the experiment on DU-145, 26.9 µM (inactive). Besides, the GI50 in the experiment on ACHN is 17.4 µM (inactive); with MOLT-4, 12.8 µM (inactive); in the experiment on OVCAR-3, 14 µM (inactive); with MDA-MB-231 it was 17.7 µM (inactive); in the experiment with TK-10 it was 22.9 µM (inactive); with A549, > 100 µM (inactive). Also, the GI50 in the experiment on U-251 is 12.9 µM (inactive); in the experiment with SNB-19 it was 16 µM (inactive); in the experiment with SK-OV-3 it was 32.7 µM (inactive); in the experiment on SF-539 it was 16.8 µM (inactive); with RXF 393 it was 0.269 µM (active); in the experiment on NCI-H460 it was > 100 µM (inactive).

As to `CCCCCCCCCCCC(=O)OCC1OC(n2cc(F)c(=O)[nH]c2=O)C(NC(=O)OCc2ccccc2)C(OC(=O)CCCCCCCCCCC)C1O` (configuration not stated), the GI50 with NCI-H522, with SR, with M14, with ACHN, with MOLT-4 and in the experiment on OVCAR-3 was > 100 µM (inactive) throughout. Besides, the GI50 in the experiment on TK-10, with A549, in the experiment on HCC 2998, with U-251, in the experiment on SNB-19 and with SK-OV-3 was > 100 µM (inactive) throughout. The GI50 in the experiment on SF-539, in the experiment on RXF 393 and with NCI-H460 was > 100 µM (inactive) in each case.

For `CC(O[Si](c1ccccc1)(c1ccccc1)C(C)(C)C)[C@H](NC(=O)OC(C)(C)C)C(=O)O[Si](c1ccccc1)(c1ccccc1)C(C)(C)C` (some centres not stated), the GI50 is 18.8 µM (inactive) in the experiment with MDA-N; 17.9 µM (inactive) in the experiment with MCF7; 12.3 µM (inactive) in the experiment on SR; 5.41 µM (inactive) in the experiment on T47D; 15.7 µM (inactive) with M14; 12.6 µM (inactive) with DU-145. In addition, the GI50 with ACHN was 10.8 µM (inactive); in the experiment on MOLT-4 it was 10.6 µM (inactive); with TK-10, 16.9 µM (inactive); in the experiment on A549 it was 11 µM (inactive); with HCC 2998, 15.9 µM (inactive); with U-251, 14.4 µM (inactive). Moreover, the GI50 in the experiment with SNB-19 is 15.5 µM (inactive); in the experiment on SK-OV-3, 16.3 µM (inactive); in the experiment with RXF 393 it was 13 µM (inactive); in the experiment with NCI-H460, 11.5 µM (inactive).

Take `CON(C)C(=O)C(C)NC(=O)OC(C)(C)C` (configuration not stated): the GI50 with MDA-N, in the experiment on MCF7, with SR, in the experiment on T47D, with M14 and in the experiment with DU-145 was > 100 µM (inactive) in each case. In addition, the GI50 in the experiment with ACHN, in the experiment with MOLT-4, with OVCAR-3, with TK-10, with A549 and in the experiment on HCC 2998 was > 100 µM (inactive) throughout. The GI50 with U-251, with SNB-19, in the experiment on SK-OV-3, with SF-539, in the experiment on RXF 393 and with NCI-H460 was > 100 µM (inactive) each time.
